For assay [1], the system named is Vero. Nature of the assay: Vero 76 cell viability after compound exposure – Vero 76 cells, synthesized analogs, cytotoxicity control for West Nile virus antiviral project, SAR follow-up (AID 2414). It is filed as functional. As to conditions: Chlorocebus sabaeus.
Assay [2] has as its system Vero. In words: Vero cell viability after compound exposure – synthesized analogs, set II, cytotoxicity control for West Nile virus antiviral project, SAR follow-up (AID 2402). It is filed as functional. The note with it: Chlorocebus sabaeus.
In assay [3] the test system is Vero. Nature of the assay: antiviral protection of cells from WNV – synthesized analogs, SAR follow-up (AID 2238). The class given is functional, cell-based. As to conditions: Chlorocebus sabaeus.
For assay [4], the system named is Vero. In words: host cell viability loss, Vero E6 – synthesized analogs, cytotoxicity control for West Nile virus antiviral project, SAR follow-up (AID 2244). It is filed as functional. The note with it: Chlorocebus sabaeus.
The nature of assay [5]: A Cell Based Assay for the Identification of Probe candidate Compounds with Anti- Venezuelan Equine Encephalitis virus. [Related pubchem assays: 2409, 2419, 1621, 2238, 2405, 2024, 2065, 2402, 2414, 1635, 1650, 2244 ]. The class given is functional.
The nature of assay [6]: viability loss of HPDE-C7K cells – cell-based, fluorescence, HTS, primary screen (AID 431). The class given is functional. As to conditions: Homo sapiens.
The target in assay [7] is G-protein coupled receptor 55 (Homo sapiens, UniProt Q9Y2T6). Nature of the assay: selective activators of receptor GPR55 – imaging, U2OS cells, beta-arrestin-GFP redistribution, primary screen (AID 1961). The class given is functional.
Sequence of G-protein coupled receptor 55 (Q9Y2T6 whole entry): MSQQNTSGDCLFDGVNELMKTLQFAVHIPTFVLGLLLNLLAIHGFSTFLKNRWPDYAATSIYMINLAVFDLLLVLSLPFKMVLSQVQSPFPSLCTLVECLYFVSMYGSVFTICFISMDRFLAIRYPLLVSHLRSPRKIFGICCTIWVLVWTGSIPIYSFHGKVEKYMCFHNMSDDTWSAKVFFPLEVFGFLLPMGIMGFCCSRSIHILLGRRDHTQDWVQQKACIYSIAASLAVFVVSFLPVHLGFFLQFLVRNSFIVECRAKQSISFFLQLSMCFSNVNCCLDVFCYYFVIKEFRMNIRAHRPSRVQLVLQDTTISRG
Assay [8] can be described thus: HPDE-C7 pancreatic duct cell viability loss – fluorescence, HTS (AID 430). The note with it: Homo sapiens. It is filed as functional, cell-based.
For assay [9], the target named is T1, Type-1 angiotensin II receptor (Homo sapiens, UniProt P30556).
T1 sequence (P30556 whole entry): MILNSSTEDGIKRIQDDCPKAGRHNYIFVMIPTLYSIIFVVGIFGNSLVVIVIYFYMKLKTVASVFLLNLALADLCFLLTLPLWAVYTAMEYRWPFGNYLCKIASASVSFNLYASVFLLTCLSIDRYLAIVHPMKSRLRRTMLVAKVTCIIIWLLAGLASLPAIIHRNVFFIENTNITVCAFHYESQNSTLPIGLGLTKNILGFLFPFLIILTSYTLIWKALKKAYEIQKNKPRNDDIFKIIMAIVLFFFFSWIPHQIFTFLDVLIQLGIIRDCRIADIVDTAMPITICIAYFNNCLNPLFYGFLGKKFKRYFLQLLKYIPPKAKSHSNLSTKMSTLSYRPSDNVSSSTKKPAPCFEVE
Nature of the assay: agonist activity at AGTR1 – cell-based, uHTS hits, selectivity assay for APJ receptor agonist project, dose response (AID 488865).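 Further: beta-arrestin recruitment to AT1 measured by enzyme fragment complementation luminescence.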 It is filed as functional.

Assay [10] addresses 5-hydroxytryptamine receptor 2A (Mus musculus, UniProt P35363). The class given is functional, cell-based.
A further assay addresses Ephrin type-A receptor 4 (Mus musculus, UniProt Q03137). In words: EphA4 ligand-binding antagonists – biochemical, colorimetric, mouse EphA4, primary screen (AID 689). It is filed as functional.
In assay [11] the target is Induced myeloid leukemia cell differentiation protein Mcl-1 (Homo sapiens, UniProt Q07820). It is filed as functional.
Sequence of Induced myeloid leukemia cell differentiation protein Mcl-1 (Q07820 whole entry): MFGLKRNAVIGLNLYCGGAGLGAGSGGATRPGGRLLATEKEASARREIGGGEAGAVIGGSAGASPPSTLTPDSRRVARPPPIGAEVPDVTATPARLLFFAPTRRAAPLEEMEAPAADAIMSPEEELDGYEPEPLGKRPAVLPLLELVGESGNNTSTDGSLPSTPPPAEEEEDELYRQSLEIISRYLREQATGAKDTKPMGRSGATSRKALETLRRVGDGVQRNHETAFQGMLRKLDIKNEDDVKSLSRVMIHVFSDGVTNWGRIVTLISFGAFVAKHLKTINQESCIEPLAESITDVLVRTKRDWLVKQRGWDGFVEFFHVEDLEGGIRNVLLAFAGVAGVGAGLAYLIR
For assay [12], the target named is T2, Tyrosine-protein phosphatase non-receptor type 7 (Homo sapiens, UniProt P35236).
T2 sequence (P35236 whole entry): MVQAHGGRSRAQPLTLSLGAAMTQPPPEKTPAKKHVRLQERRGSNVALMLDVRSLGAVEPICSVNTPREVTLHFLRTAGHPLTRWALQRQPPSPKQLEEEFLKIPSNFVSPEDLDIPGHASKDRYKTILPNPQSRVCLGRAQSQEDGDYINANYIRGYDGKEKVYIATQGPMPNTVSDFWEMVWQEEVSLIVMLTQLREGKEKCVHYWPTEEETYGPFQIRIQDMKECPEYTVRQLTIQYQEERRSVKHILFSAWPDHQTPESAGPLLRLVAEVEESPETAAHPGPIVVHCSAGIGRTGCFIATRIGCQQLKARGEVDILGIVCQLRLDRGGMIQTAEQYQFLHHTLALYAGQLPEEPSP
Nature of the assay: redox-active compounds inhibiting HePTP phosphatase – biochemical, fluorescence, mechanism study (AID 2068). The class given is functional.

In assay [13] the target is T3, Dual specificity protein phosphatase 3 (Homo sapiens, UniProt P51452). In words: Dose Response Confirmation of compounds that inhibit VHR1 in Fluorescent Assay. [Related pubchem assays (depositor defined):AID1661, AID1878]. The class given is functional.
T3 sequence (P51452 whole entry): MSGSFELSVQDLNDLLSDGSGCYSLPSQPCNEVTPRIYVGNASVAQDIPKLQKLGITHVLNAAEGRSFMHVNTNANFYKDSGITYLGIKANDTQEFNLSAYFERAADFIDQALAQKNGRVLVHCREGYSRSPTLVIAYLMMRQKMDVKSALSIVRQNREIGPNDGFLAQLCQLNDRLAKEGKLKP
Assay [14] concerns the target T2, Tyrosine-protein phosphatase non-receptor type 7. Nature of the assay: Dose Response confirmation of compounds that inhibit HePTP. [Related pubchem assays (depositor defined):AID1059, AID1661, AID2085]. It is filed as functional.
Assay [15] addresses Eukaryotic translation initiation factor 4H (Homo sapiens, UniProt Q15056). In words: inhibitors of translation initiation factor eIF4H – SAR follow-up (AID 435011). The class given is functional.
The target of assay [16] is Polyadenylate-binding protein 1 (Homo sapiens, UniProt P11940). Nature of the assay: PABP inhibition in translation initiation, SAR follow-up (AID 435018). It is filed as functional.
Sequence of Polyadenylate-binding protein 1 (P11940 whole entry): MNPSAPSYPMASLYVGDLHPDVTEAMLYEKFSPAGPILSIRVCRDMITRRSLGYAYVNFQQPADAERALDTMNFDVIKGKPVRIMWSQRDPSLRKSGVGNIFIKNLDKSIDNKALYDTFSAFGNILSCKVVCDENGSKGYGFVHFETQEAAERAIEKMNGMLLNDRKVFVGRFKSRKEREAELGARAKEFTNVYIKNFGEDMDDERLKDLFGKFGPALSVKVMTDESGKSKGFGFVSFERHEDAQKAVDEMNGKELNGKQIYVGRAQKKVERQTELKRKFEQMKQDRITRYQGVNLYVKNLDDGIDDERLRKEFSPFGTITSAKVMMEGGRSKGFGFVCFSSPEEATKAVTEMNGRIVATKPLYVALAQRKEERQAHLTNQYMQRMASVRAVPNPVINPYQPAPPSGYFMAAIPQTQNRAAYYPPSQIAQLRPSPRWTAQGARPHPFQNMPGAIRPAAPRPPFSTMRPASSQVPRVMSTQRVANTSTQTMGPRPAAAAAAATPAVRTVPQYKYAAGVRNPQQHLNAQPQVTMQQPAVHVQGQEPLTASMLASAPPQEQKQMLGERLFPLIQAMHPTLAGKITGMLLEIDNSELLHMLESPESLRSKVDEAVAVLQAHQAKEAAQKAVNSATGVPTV
A short description of assay [17]: viability loss in HeLa cells – cytotoxicity control for MgcRacGAP inhibitor project, dose response (AID 624300). The class given is functional.
The target in assay [18] is Mitochondrial peptide methionine sulfoxide reductase (Bos taurus, UniProt P54149). Nature of the assay: Absorbance-based biochemical high throughput dose response assay for activators of Methionine sulfoxide reductase A (MsrA). It is filed as functional.
Sequence of Mitochondrial peptide methionine sulfoxide reductase (P54149 whole entry): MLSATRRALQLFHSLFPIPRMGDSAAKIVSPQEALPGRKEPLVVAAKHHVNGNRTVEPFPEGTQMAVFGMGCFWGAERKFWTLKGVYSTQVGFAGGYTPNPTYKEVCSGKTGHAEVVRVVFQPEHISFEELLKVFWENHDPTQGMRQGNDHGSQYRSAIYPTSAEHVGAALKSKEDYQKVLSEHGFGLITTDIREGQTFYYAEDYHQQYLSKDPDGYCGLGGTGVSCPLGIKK
Assay [19] concerns the target Glucose-6-phosphate 1-dehydrogenase (Homo sapiens, UniProt P11413). In words: inhibition of Homo sapiens G6PD, dose series – biochemical, fluorescence, selectivity assay for P. falciparum G6PD inhibitor project, dose response (AID 504792). The class given is functional.
The target in the next assay is Phosphomannomutase 2 (Homo sapiens, UniProt O15305). Nature of the assay: Counter screen SAR assay for PMM2 inhibitors via a fluorescence intensity assay. [Related pubchem assays (depositor defined):AID1545, AID1574]. For orientation: A counterscreen serves to expose hits that act by an unwanted route or on another target.
Sequence of Phosphomannomutase 2 (O15305 whole entry): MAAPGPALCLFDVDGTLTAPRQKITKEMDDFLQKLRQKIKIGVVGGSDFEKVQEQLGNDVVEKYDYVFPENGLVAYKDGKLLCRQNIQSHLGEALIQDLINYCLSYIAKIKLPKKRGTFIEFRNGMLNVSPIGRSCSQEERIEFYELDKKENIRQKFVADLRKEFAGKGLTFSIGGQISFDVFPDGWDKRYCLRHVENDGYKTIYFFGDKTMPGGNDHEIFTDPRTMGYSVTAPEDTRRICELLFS
The target in assay [20] is T4, Rac GTPase-activating protein 1 (Homo sapiens, UniProt Q9H0H5).
T4 sequence (Q9H0H5 whole entry): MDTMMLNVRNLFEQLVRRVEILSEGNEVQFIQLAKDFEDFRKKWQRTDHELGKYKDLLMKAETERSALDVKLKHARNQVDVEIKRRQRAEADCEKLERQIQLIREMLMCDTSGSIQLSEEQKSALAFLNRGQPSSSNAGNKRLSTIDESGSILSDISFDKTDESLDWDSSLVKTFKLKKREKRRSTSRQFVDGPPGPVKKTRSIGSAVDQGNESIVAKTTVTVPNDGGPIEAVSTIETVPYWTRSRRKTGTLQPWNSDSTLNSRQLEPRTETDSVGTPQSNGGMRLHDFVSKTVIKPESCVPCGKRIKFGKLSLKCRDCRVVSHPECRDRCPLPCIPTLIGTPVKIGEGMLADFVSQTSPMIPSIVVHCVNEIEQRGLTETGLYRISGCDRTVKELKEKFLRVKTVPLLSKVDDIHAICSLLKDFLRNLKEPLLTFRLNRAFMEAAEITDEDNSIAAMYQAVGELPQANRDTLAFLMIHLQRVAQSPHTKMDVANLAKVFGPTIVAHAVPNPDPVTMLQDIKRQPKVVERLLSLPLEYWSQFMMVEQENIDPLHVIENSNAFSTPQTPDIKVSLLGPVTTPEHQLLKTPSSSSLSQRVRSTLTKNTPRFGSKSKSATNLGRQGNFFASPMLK
Nature of the assay: blockers of MgcRacGAP-driven Rac1 GTP hydrolysis – biochemical, ADP Hunter fluorescence, primary and confirmatory, confirmation (AID 624330). It is filed as functional.

The target in a further assay is T5, Hexokinase (Trypanosoma brucei, UniProt Q38C41).
T5 sequence (Q38C41 whole entry): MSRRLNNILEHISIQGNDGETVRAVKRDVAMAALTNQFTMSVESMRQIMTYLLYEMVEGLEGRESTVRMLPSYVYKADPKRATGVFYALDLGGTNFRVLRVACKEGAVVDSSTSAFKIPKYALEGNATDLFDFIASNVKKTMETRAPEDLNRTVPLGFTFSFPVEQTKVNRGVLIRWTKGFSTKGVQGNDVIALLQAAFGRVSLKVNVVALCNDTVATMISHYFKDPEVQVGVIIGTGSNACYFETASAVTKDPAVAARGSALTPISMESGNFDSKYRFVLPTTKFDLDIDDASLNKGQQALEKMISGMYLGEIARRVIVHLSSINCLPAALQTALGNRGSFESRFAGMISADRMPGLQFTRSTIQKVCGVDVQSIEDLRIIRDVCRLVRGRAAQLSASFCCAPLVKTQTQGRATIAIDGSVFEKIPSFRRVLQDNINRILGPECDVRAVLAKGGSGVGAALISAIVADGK
Nature of the assay: Confirmation assay for inhibitors of Trypanosoma brucei hexokinase 1-Analogue-first series. [Related pubchem assays (depositor defined):AID1430, AID1632, AID2516, AID2560, AID2579, AID2600, AID449725, AID492951]. The class given is functional.

The target in assay [21] is T6, Mannose-6-phosphate isomerase (Homo sapiens, UniProt P34949).
T6 sequence (P34949 whole entry): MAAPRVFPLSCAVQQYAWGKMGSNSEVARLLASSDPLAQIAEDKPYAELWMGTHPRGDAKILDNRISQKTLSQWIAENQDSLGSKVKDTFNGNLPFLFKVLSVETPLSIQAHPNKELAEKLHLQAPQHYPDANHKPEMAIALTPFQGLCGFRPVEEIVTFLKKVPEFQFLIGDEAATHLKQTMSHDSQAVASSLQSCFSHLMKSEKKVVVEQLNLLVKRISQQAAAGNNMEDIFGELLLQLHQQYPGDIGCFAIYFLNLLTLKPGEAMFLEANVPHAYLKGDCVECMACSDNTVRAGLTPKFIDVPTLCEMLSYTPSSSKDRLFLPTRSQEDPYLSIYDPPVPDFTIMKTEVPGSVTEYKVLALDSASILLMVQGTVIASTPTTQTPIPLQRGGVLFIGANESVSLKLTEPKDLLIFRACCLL
Nature of the assay: phosphomannose isomerase inhibition – biochemical, fluorescence intensity, confirmation (AID 1535).

In assay [22] the target is Phosphoethanolamine/phosphocholine phosphatase (Homo sapiens, UniProt Q8TCT1). In words: SAR assay for compounds that inhibit PHOSPHO1. [Related pubchem assays (depositor defined):AID1545, AID1565, AID1574].
Sequence of Phosphoethanolamine/phosphocholine phosphatase (Q8TCT1 whole entry): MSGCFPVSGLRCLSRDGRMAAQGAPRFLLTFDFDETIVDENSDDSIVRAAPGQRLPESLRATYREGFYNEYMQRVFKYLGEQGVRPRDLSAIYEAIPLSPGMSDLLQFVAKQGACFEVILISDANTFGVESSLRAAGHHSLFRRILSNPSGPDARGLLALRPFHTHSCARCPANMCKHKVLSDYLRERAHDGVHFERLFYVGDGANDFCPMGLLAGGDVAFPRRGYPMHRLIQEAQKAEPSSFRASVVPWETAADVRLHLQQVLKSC
For assay [23], the target named is T2, Tyrosine-protein phosphatase non-receptor type 7. In words: SAR analysis of chemical inhibitors of HePTP using a Fluorescent assay - Set 2. [Related pubchem assays (depositor defined):AID1059, AID1077, AID1661, AID2085, AID521]. It is filed as functional.
In assay [24] the target is T3, Dual specificity protein phosphatase 3. In words: SAR VHR1 Fluorescent Assay for In Vitro dose response studies Set 2. [Related pubchem assays (depositor defined):AID1654, AID1661, AID1878]. The class given is functional.

Calls of active or inactive are those of the source. A value given as a limit tells only on which side of the number the result lay.

Sequence of Glucose-6-phosphate 1-dehydrogenase (P11413 whole entry): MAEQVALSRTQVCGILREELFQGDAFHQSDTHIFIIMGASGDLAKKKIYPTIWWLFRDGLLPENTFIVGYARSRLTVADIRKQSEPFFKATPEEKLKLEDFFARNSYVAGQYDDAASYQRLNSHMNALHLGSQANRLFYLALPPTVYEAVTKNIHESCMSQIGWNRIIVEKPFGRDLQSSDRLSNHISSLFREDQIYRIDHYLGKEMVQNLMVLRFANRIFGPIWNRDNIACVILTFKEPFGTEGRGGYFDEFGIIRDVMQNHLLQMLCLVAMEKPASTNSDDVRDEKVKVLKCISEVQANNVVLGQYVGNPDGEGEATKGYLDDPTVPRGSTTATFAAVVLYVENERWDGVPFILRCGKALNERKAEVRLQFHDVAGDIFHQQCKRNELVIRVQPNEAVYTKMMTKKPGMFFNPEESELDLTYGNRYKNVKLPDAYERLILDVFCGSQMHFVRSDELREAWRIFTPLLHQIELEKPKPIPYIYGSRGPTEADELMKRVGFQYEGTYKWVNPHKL
Sequence of Ephrin type-A receptor 4 (Q03137 whole entry): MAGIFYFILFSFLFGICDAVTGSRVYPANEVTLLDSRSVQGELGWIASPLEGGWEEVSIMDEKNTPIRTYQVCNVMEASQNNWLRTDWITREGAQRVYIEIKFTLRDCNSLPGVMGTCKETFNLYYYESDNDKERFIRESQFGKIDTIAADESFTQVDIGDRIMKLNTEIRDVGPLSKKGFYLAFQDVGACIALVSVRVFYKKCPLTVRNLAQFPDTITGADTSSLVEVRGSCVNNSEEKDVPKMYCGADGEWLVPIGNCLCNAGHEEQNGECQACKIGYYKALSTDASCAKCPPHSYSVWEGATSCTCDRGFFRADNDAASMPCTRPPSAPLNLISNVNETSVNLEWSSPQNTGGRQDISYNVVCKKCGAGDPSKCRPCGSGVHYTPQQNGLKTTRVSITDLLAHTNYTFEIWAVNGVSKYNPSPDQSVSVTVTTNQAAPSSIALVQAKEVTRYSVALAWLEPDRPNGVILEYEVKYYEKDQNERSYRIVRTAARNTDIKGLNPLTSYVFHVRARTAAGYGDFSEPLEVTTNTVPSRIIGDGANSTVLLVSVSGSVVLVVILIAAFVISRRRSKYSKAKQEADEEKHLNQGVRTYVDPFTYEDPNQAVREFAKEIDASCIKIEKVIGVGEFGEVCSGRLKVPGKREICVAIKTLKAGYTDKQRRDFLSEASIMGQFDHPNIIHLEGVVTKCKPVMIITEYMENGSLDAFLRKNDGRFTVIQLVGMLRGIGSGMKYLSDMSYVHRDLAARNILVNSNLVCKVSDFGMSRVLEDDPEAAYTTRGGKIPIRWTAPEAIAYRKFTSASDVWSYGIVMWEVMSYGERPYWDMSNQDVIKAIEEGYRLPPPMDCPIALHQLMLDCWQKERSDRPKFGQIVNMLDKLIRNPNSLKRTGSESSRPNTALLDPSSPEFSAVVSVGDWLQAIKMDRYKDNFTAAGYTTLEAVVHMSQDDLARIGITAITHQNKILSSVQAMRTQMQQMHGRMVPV
Sequence of 5-hydroxytryptamine receptor 2A (P35363 whole entry): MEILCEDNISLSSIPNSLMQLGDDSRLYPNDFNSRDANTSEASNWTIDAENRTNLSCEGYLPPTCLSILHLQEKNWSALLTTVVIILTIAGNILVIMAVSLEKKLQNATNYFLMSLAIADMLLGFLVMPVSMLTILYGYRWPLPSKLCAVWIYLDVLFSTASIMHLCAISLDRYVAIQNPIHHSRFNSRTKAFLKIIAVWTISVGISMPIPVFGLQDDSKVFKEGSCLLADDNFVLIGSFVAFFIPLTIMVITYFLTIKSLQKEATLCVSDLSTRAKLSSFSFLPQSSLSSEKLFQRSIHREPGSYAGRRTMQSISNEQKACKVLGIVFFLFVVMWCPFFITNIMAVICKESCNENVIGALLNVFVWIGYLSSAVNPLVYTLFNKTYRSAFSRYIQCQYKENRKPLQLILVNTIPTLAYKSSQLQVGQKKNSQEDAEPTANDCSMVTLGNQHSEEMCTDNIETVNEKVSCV

Regarding `O=C(CSc1nc2ccccc2c(=O)n1-c1ccc(Cl)cc1)Nc1ccc2c(c1)CCC2`, the CC50 – broadly, the concentration at which the toxic effect on the cells reaches its halfway point – in the assay on Vero [1] was > 66.6 µM (active); in the assay with Vero [2], > 100 µM (active); with Vero [4] it was > 40 µM (active). Besides, the IC50 (commonly the concentration that inhibits the measured activity by half) in the assay with Vero [3] was > 40 µM (active); in [5], 7.56 µM (active).
In the case of `CC/C(Nc1ccc(OC)cc1OC)=C1/C(=O)NC(=O)N(C2CCCCC2)C1=O`, the EC50 (in general, the midpoint of the concentration-response curve) was 16.3 µM (active) in assay [6], 10.9 µM (inactive) in assay [7] and 12.8 µM (active) in assay [8].
In the case of `COC(=O)C1=C(Cn2cnc3ccccc32)NC(=O)NC1c1cc(C)ccc1C` (configuration not stated), the EC50 was > 100 µM (inactive) in assay [9] and 8.44 µM (active) in assay [10].
In the case of `O=S(=O)(c1ccc2nc(-c3ccco3)c(-c3ccco3)nc2c1)N1CCOCC1`, the IC50 on Ephrin type-A receptor 4 is 21.5 µM (active); in assay [11], 5.65 µM (active); in [12], 7.46 µM (active).
On to `Cn1c2ccccc2c(=O)c2ccc(C#Cc3ccccn3)cc21`, for which the IC50 in assay [13] was 7.2 µM (active); in [14] it was 6.64 µM (active).
Turning to `COc1ccc([N+](=O)[O-])cc1NC(=O)C(C)OC(=O)c1ccccc1C(=O)c1ccc(Cl)cc1` (configuration not stated), the IC50 in assay [15] and in assay [16] was > 100 µM (inactive) throughout.
Turning to `O=c1c2ccccc2sn1-c1cccc(Cl)c1`, the CC50 in [17] was 100 µM (active). Moreover, the EC50 in [18] was > 104 µM (inactive). Moreover, the IC50 is 13 µM (active) in [19]; 59.6 µM (active) at Phosphomannomutase 2; 33.9 µM (active) in [20]; 1.9 µM (active) at Hexokinase; 3.43 µM (active) in [21]; 5.21 µM (inactive) in assay [22].
`O=S(=O)(Nc1ncccn1)c1ccc(NC(=S)N2CCN(Cc3ccc4c(c3)OCO4)CC2)cc1`: the IC50 in assay [23] and in assay [24] was > 100 µM (inactive) each time.
